Results published in PubChem BioAssay (NCI).
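Method: 48-hour compound exposure of cells in 96-well plates, five concentrations, linear interpolation of endpoints. TGI marks complete inhibition of growth.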

Key:
Test in all cases: NCI tumour cell line growth inhibition, 48 h
[1] = tested on: CCRF-CEM leukemia
[2] = tested on: COLO 205 colon
[3] = tested on: SR leukemia
[4] = tested on: SNB-19 CNS
[5] = tested on: NCI-H522 lung
[6] = tested on: SF-295 CNS
[7] = tested on: HCT-116 colon
[8] = tested on: ACHN renal
[9] = tested on: A549 NSCLC
[10] = tested on: A498 renal
[11] = tested on: MCF7 breast
[12] = tested on: BT-549 breast

CC(/C=C/c1ncccc1OCCCCCC(=O)O)=N\NC1=NCCN1
TGI [1]: > 100 µM | TGI [2]: > 100 µM | TGI [3]: > 100 µM | TGI [4]: > 100 µM | TGI [5]: > 100 µM | TGI [6]: > 100 µM | TGI [7]: > 100 µM | TGI [8]: > 100 µM | TGI [9]: > 100 µM

CN(C)C(=S)Nc1nnc(NC23CC4CC(CC(C4)C2)C3)s1
TGI [1]: 84.9 µM | TGI [2]: 44.1 µM | TGI [3]: 57.9 µM | TGI [4]: 41.2 µM | TGI [5]: 34.9 µM | TGI [6]: 30.7 µM | TGI [10]: 37.3 µM | TGI [7]: 33 µM | TGI [8]: 64 µM | TGI [9]: 36.5 µM

C=C1C(=O)OC2/C=C(\C)CC/C=C(/C)CC(OC(=O)/C(=C/CO)CO)C12 (centres undefined)
TGI [1]: > 100 µM | TGI [2]: 33 µM | TGI [3]: > 100 µM | TGI [4]: > 100 µM | TGI [11]: 48.7 µM | TGI [12]: 30.9 µM | TGI [5]: 39.9 µM | TGI [6]: > 100 µM | TGI [8]: 33.5 µM | TGI [9]: > 100 µM

CS(C)(=O)=N/C=C\C(=O)C(Cl)(Cl)Cl
TGI [1]: > 100 µM | TGI [2]: > 100 µM | TGI [3]: > 100 µM | TGI [4]: > 100 µM | TGI [11]: > 100 µM | TGI [12]: > 100 µM | TGI [5]: > 100 µM | TGI [6]: > 100 µM | TGI [7]: > 100 µM | TGI [8]: > 100 µM | TGI [9]: > 100 µM

O=C1CCCCC/C=C2/CC[C@H](Sc3ccccc3)[C@@H]12
TGI [1]: > 100 µM | TGI [2]: > 100 µM | TGI [3]: > 100 µM | TGI [4]: > 100 µM | TGI [6]: > 100 µM | TGI [7]: > 100 µM | TGI [8]: > 100 µM | TGI [9]: > 100 µM

OC(c1cc(C(O)(C(F)(F)F)C(F)(F)F)ncn1)(C(F)(F)F)C(F)(F)F
TGI [1]: > 10 µM | TGI [2]: > 10 µM | TGI [3]: > 10 µM | TGI [4]: > 10 µM | TGI [11]: > 10 µM | TGI [5]: > 10 µM | TGI [6]: > 10 µM | TGI [10]: > 10 µM | TGI [7]: > 10 µM | TGI [8]: > 10 µM | TGI [9]: > 10 µM

O=C1CCc2c3c(c4c([nH]c5ccccc54)c2CC1)C(=O)NC3=O
TGI [1]: > 100 µM | TGI [2]: > 100 µM | TGI [4]: 44.4 µM | TGI [11]: 81 µM | TGI [12]: 28.2 µM | TGI [5]: 9.3 µM | TGI [6]: 33.5 µM | TGI [10]: 13.5 µM | TGI [7]: > 100 µM | TGI [8]: 24.7 µM | TGI [9]: > 100 µM

NS(=O)(=O)c1ccc(NNC(=O)c2cccc3c(=O)c4ccccc4[nH]c23)cc1
TGI [1]: > 100 µM | TGI [2]: > 100 µM | TGI [3]: > 100 µM | TGI [4]: > 100 µM | TGI [11]: > 100 µM | TGI [12]: > 100 µM | TGI [5]: > 100 µM | TGI [6]: > 100 µM | TGI [7]: > 100 µM | TGI [8]: > 100 µM | TGI [9]: > 100 µM

Nn1c(CNc2ccc(-c3nnc(Nc4ccc(Cl)cc4)n3N)cc2)nnc1Nc1ccc(Cl)cc1
TGI [2]: > 100 µM | TGI [4]: > 100 µM | TGI [11]: > 100 µM | TGI [12]: > 100 µM | TGI [5]: > 100 µM | TGI [6]: > 100 µM | TGI [10]: > 100 µM | TGI [7]: > 100 µM | TGI [8]: > 100 µM | TGI [9]: > 100 µM

c1ccc(Cc2cccc3cc(-c4ccc(-c5ccccc5)cc4)[nH]c23)cc1
TGI [1]: > 100 µM | TGI [2]: > 100 µM | TGI [3]: 47 µM | TGI [4]: > 100 µM | TGI [11]: > 100 µM | TGI [12]: > 100 µM | TGI [5]: > 100 µM | TGI [6]: > 100 µM | TGI [7]: > 100 µM | TGI [8]: > 100 µM | TGI [9]: > 100 µM

Cc1c2c(c(C)c3c[n+](C)ccc13)Oc1ccccc1O2
TGI [1]: 37.6 µM | TGI [2]: > 52.9 µM | TGI [4]: 12.7 µM | TGI [11]: > 63 µM | TGI [5]: 17.1 µM | TGI [6]: > 80.4 µM | TGI [10]: > 100 µM | TGI [7]: > 67.9 µM | TGI [8]: > 100 µM | TGI [9]: > 100 µM

COc1ccc(-c2cc(-c3ccccc3)n(C3OC(COC(C)=O)C(OC(C)=O)C(OC(C)=O)C3OC(C)=O)c(=S)c2C#N)cc1 (centres undefined)
TGI [2]: 23.4 µM | TGI [3]: 37.5 µM | TGI [4]: 23.1 µM | TGI [11]: > 100 µM | TGI [12]: 34.9 µM | TGI [5]: 18.5 µM | TGI [6]: 17.9 µM | TGI [7]: 19.2 µM | TGI [8]: 29.7 µM | TGI [9]: 39.3 µM

C=CCN1CCC(OC(=O)C(O)(/C=C\CC)C2CCCC2)CC1 (centres undefined)
TGI [1]: > 100 µM | TGI [2]: > 100 µM | TGI [4]: > 100 µM | TGI [11]: > 100 µM | TGI [12]: > 100 µM | TGI [5]: > 100 µM | TGI [6]: > 100 µM | TGI [10]: > 100 µM | TGI [7]: > 100 µM | TGI [8]: > 100 µM | TGI [9]: > 100 µM

CCOC(=O)C(Cc1ccc2c(c1)CCC2)(Cc1ccc2c(c1)CCC2)C(=O)OCC
TGI [1]: > 100 µM | TGI [3]: 55.1 µM | TGI [4]: > 100 µM | TGI [11]: > 100 µM | TGI [5]: > 100 µM | TGI [6]: > 100 µM | TGI [10]: > 100 µM | TGI [7]: > 100 µM | TGI [8]: > 100 µM | TGI [9]: > 100 µM

O=C(CSc1nc2ccc(I)cc2c(=O)n1Cc1ccccc1)N/N=C/c1ccccc1
TGI [1]: > 100 µM | TGI [2]: > 100 µM | TGI [3]: > 100 µM | TGI [4]: 49.1 µM | TGI [11]: > 100 µM | TGI [5]: 40 µM | TGI [6]: 30.9 µM | TGI [10]: 43.7 µM | TGI [7]: > 100 µM | TGI [8]: > 100 µM | TGI [9]: > 100 µM

NNC(N)=Nc1cccc2ccccc12
TGI [1]: > 100 µM | TGI [2]: > 100 µM | TGI [3]: > 100 µM | TGI [4]: > 100 µM | TGI [11]: > 100 µM | TGI [6]: > 100 µM | TGI [10]: > 100 µM | TGI [7]: > 100 µM | TGI [8]: > 100 µM | TGI [9]: > 100 µM

O=C1C=C2S[C@H]3C[C@]2(C=C1Br)c1c(c(O)c2c4c1=NCCC=4C=N2)N3
TGI [2]: 0.21 µM | TGI [3]: > 100 µM | TGI [4]: 25.7 µM | TGI [5]: 0.716 µM | TGI [6]: 2.83 µM | TGI [10]: 13.3 µM | TGI [7]: 0.342 µM | TGI [8]: 1.76 µM | TGI [9]: 6.85 µM

Cc1ccnc(NS(=O)(=O)c2ccc(NC(=O)c3ccc4nc5ccccc5c(Nc5ccc(S(=O)(=O)Nc6nccc(C)n6)cc5)c4c3)cc2)n1
TGI [1]: > 100 µM | TGI [2]: > 100 µM | TGI [3]: 55.6 µM | TGI [4]: > 100 µM | TGI [11]: 75.1 µM | TGI [12]: 32.6 µM | TGI [5]: 87.4 µM | TGI [6]: > 100 µM | TGI [7]: > 100 µM | TGI [8]: > 100 µM | TGI [9]: > 100 µM

COc1cc(Cn2c3c(c4c(CN(C)C)c(O)ccc42)C(=O)c2ccccc2C3=O)cc(OC)c1
TGI [1]: 52.4 µM | TGI [2]: 85.3 µM | TGI [3]: 36.5 µM | TGI [4]: 36.9 µM | TGI [11]: 29.4 µM | TGI [6]: 44 µM | TGI [10]: 22.4 µM | TGI [7]: 31.1 µM | TGI [8]: 29.6 µM | TGI [9]: 35.1 µM

CCCCCCc1nn2c(-c3ccc(C)cc3)nnc2s1
TGI [2]: > 100 µM | TGI [4]: > 100 µM | TGI [11]: > 100 µM | TGI [12]: > 100 µM | TGI [5]: > 100 µM | TGI [6]: > 100 µM | TGI [10]: > 100 µM | TGI [7]: > 100 µM | TGI [8]: > 100 µM | TGI [9]: > 100 µM

CN1CCc2c(sc3nc(Nc4ccccc4)n(N)c(=O)c23)C1
TGI [1]: > 100 µM | TGI [2]: > 100 µM | TGI [4]: > 100 µM | TGI [11]: > 100 µM | TGI [12]: > 100 µM | TGI [6]: > 100 µM | TGI [10]: > 100 µM | TGI [7]: > 100 µM | TGI [8]: > 100 µM | TGI [9]: > 100 µM
